Assay results reported in ChEMBL document CHEMBL1121990, “Synthesis and pharmacological activity of 6-aryl-2-azabicyclo[4.2.1]nonanes” (1982).

Test system: Mus musculus
Assay: Analgesic activity was determined after subcutaneous administration in mice using Eddy hot plate assay or Nilsen assay.
Format: functional
Conditions: sc

| SMILES | ED50 |
| --- | --- |
| COc1cccc(C23CCCN(C)C(CC2)C3)c1.O=C(O)C(=O)O (stereo not drawn) | 5.7 mg/kg |
| CN1CCCC2(c3ccccc3)CCC1C2.O=C(O)C(=O)O (stereo not drawn) | 11.7 mg/kg |
| Br.CN1CCCC2(c3cccc(O)c3)CCC1C2 (stereo not drawn) | 16.2 mg/kg |
| Br.Oc1cccc(C23CCCN(CCc4ccccc4)C(CC2)C3)c1 (stereo not drawn) | 4.5 mg/kg |
| Br.C=CCN1CCCC2(c3cccc(OC)c3)CCC1C2 (stereo not drawn) | 20 mg/kg |
| Br.COc1cccc(C23CCCNC(CC2)C3)c1 (stereo not drawn) | 4 mg/kg |
| Br.COc1cccc(C23CCCN(CCc4ccccc4)C(CC2)C3)c1 (stereo not drawn) | 10.9 mg/kg |
| COc1ccc2c3c1O[C@H]1[C@@H](O)C=C[C@H]4[C@@H](C2)N(C)CC[C@@]341.COc1ccc2c3c1O[C@H]1[C@@H](O)C=C[C@H]4[C@@H](C2)N(C)CC[C@@]341.O.O=P(O)(O)O.O=P(O)(O)O [CODEINE PHOSPHATE] | 6.8 mg/kg |
